Measured values reported in ChEMBL document CHEMBL5241131, “2-Anilino-4-(1-methyl-1H-pyrazol-4-yl)pyrimidine-derived CDK2 inhibitors as anticancer agents: Design, synthesis & evaluation” (Bioorg Med Chem, 2023).

Tested on: A2780
Assay: Antiproliferative activity against human A2780 cells assessed as inhibition of cell growth incubated for 72 hrs by MTT assay
Type: functional
Conditions: not given

SMILES | GI50 [nM]
Cn1cc(-c2nc(Nc3cccc(S(N)(=O)=O)c3)ncc2F)cn1 | 18
Cn1cc(-c2nc(Nc3cccc(S(N)(=O)=O)c3)ncc2Cl)cn1 | 80
Cn1cc(-c2nc(Nc3ccc(S(N)(=O)=O)cc3)ncc2F)cn1 | 232

Tested on: HCT-116
Assay: Antiproliferative activity against human HCT-116 cells assessed as inhibition of cell growth incubated for 72 hrs by MTT assay
Type: functional
Conditions: not given

SMILES | GI50 [nM]
Cn1cc(-c2nc(Nc3cccc(S(N)(=O)=O)c3)ncc2F)cn1 | 65

Target: CDK9/cyclin T1 (Homo sapiens) (UniProt O60563+P50750)
Assay: Inhibition of CDK9/cyclin T1 (unknown origin) at 1 uM incubated for 30 to 60 mins presence of dithiothreitol by Cheng-Prusoff equation analysis relative to control
Type: protein-complex assay
Conditions: time 30-60 min

SMILES | inhibition [%]
Cn1cc(-c2nc(Nc3ccc(S(C)(=O)=O)cc3)ncc2F)cn1 | 33
Cn1cc(-c2nc(NC3CCN(S(C)(=O)=O)CC3)ncc2F)cn1 | 55

Tested on: OVCAR-5
Assay: Antiproliferative activity against human OVCAR-5 cells assessed as inhibition of cell growth incubated for 72 hrs by MTT assay
Type: functional
Conditions: not given

SMILES | GI50 [nM]
Cn1cc(-c2nc(Nc3cccc(S(N)(=O)=O)c3)ncc2F)cn1 | 80

Tested on: OAW-28
Assay: Antiproliferative activity against human OAW-28 cells assessed as inhibition of cell growth incubated for 72 hrs by MTT assay
Type: functional
Conditions: not given

SMILES | GI50 [nM]
Cn1cc(-c2nc(Nc3cccc(S(N)(=O)=O)c3)ncc2F)cn1 | 149

Tested on: OV-90
Assay: Antiproliferative activity against human OV-90 cells assessed as inhibition of cell growth incubated for 72 hrs by MTT assay
Type: functional
Conditions: not given

SMILES | GI50 [nM]
Cn1cc(-c2nc(Nc3cccc(S(N)(=O)=O)c3)ncc2F)cn1 | 83

Tested on: ES-2
Assay: Antiproliferative activity against human ES2 cells assessed as inhibition of cell growth incubated for 72 hrs by MTT assay
Type: functional
Conditions: not given

SMILES | GI50 [nM]
Cn1cc(-c2nc(Nc3cccc(S(N)(=O)=O)c3)ncc2F)cn1 | 109

Tested on: HT-29
Assay: Antiproliferative activity against human HT-29 cells assessed as inhibition of cell growth incubated for 72 hrs by MTT assay
Type: functional
Conditions: not given

SMILES | GI50 [nM]
Cn1cc(-c2nc(Nc3cccc(S(N)(=O)=O)c3)ncc2F)cn1 | 81

Tested on: A2780
Assay: Antiproliferative activity against human A2780 cells assessed as inhibition of cell growth at 1 uM incubated for 72 hrs by MTT assay
Type: functional
Design: scale not given: the % may be the effect or the level left
Conditions: not given

SMILES | Activity [%]
Cn1cc(-c2nc(Nc3ccc(S(C)(=O)=O)cc3)ncc2F)cn1 | 5
Cn1cc(-c2nc(NC3CCN(S(C)(=O)=O)CC3)ncc2F)cn1 | 17

Tested on: COLO 205
Assay: Antiproliferative activity against human COLO 205 cells assessed as inhibition of cell growth incubated for 72 hrs by MTT assay
Type: functional
Conditions: not given

SMILES | GI50 [nM]
Cn1cc(-c2nc(Nc3cccc(S(N)(=O)=O)c3)ncc2F)cn1 | 64

Target: Cyclin-dependent kinase 1/cyclin B (Homo sapiens, UniProt P06493)
Assay: Inhibition of CDK1/Cyclin B (unknown origin) assessed as inhibition constant incubated for 30 to 60 mins presence of dithiothreitol by Cheng-Prusoff equation analysis
Type: protein-complex assay
Conditions: not given

SMILES | Ki [nM]
Cn1cc(-c2nc(Nc3ccc(S(C)(=O)=O)cc3)ncc2F)cn1 | 146
Cn1cc(-c2nc(Nc3cccc(S(N)(=O)=O)c3)ncc2F)cn1 | 5
Cn1cc(-c2nc(Nc3cccc(S(N)(=O)=O)c3)ncc2Cl)cn1 | 5
Cn1cc(-c2nc(NC3CCN(S(C)(=O)=O)CC3)ncc2F)cn1 | 99
Cn1cc(-c2nc(Nc3ccc(S(N)(=O)=O)cc3)ncc2F)cn1 | 6

Target: CDK9/cyclin T1 (Homo sapiens, UniProt P50750)
Sequence (O60563 whole entry): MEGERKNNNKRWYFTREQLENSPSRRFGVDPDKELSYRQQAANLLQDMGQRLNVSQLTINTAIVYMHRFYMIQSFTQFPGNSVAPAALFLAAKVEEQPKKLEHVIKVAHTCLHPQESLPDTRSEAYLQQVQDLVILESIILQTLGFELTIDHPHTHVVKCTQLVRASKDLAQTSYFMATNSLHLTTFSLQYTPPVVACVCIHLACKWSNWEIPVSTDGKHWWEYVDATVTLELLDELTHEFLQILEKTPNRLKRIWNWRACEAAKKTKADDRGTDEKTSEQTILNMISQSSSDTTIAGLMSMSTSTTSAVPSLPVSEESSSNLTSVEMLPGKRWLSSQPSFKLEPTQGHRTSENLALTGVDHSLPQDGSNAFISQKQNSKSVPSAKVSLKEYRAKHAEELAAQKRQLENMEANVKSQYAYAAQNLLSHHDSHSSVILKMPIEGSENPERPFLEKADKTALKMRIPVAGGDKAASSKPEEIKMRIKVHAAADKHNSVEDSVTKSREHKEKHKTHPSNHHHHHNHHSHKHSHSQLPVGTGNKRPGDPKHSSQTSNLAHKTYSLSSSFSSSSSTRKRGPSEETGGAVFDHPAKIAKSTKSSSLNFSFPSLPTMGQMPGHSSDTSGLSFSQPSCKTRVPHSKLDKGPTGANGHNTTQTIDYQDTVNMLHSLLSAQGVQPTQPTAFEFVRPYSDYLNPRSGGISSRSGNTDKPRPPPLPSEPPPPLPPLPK
Sequence (P50750 whole entry): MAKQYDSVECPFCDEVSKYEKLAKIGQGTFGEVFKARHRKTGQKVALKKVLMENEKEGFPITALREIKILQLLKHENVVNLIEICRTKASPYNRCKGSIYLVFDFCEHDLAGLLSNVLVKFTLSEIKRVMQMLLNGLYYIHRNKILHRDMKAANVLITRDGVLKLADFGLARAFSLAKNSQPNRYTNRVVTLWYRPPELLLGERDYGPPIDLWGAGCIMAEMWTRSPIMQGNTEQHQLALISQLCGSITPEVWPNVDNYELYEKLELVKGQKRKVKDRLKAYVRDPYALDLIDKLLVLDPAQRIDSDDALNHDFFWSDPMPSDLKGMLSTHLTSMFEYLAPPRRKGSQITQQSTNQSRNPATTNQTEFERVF
Assay: Inhibition of CDK9/cyclin T1 (unknown origin) assessed as inhibition constant incubated for 30 to 60 mins presence of dithiothreitol by Cheng-Prusoff equation analysis
Type: protein-complex assay
Conditions: not given

SMILES | Ki [nM]
Cn1cc(-c2nc(Nc3cccc(S(N)(=O)=O)c3)ncc2F)cn1 | 26
Cn1cc(-c2nc(Nc3cccc(S(N)(=O)=O)c3)ncc2Cl)cn1 | 301
Cn1cc(-c2nc(Nc3ccc(S(N)(=O)=O)cc3)ncc2F)cn1 | 271

Tested on: not listed separately
Assay: Antiproliferative activity against human COV504 cells assessed as inhibition of cell growth incubated for 72 hrs by MTT assay
Type: functional
Conditions: not given

SMILES | GI50 [nM]
Cn1cc(-c2nc(Nc3cccc(S(N)(=O)=O)c3)ncc2F)cn1 | 106

Tested on: not listed separately
Assay: Antiproliferative activity against human COV318 cells assessed as inhibition of cell growth incubated for 72 hrs by MTT assay
Type: functional
Conditions: not given

SMILES | GI50 [nM]
Cn1cc(-c2nc(Nc3cccc(S(N)(=O)=O)c3)ncc2F)cn1 | 79

Tested on: U-937
Assay: Antiproliferative activity against human U-937 cells assessed as inhibition of cell growth incubated for 72 hrs by MTT assay
Type: functional
Conditions: not given

SMILES | GI50 [nM]
Cn1cc(-c2nc(Nc3cccc(S(N)(=O)=O)c3)ncc2F)cn1 | 25

Tested on: MDA-MB-231
Assay: Antiproliferative activity against human MDA-MB-231 cells assessed as inhibition of cell growth incubated for 72 hrs by MTT assay
Type: functional
Conditions: not given

SMILES | GI50 [nM]
Cn1cc(-c2nc(Nc3cccc(S(N)(=O)=O)c3)ncc2F)cn1 | 129

Tested on: NCI-H460
Assay: Antiproliferative activity against human NCI-H460 cells assessed as inhibition of cell growth incubated for 72 hrs by MTT assay
Type: functional
Conditions: not given

SMILES | GI50 [nM]
Cn1cc(-c2nc(Nc3cccc(S(N)(=O)=O)c3)ncc2F)cn1 | 162

Tested on: MV4-11
Assay: Antiproliferative activity against human MV4-11 cells assessed as inhibition of cell growth incubated for 72 hrs by MTT assay
Type: functional
Conditions: not given

SMILES | GI50 [nM]
Cn1cc(-c2nc(Nc3cccc(S(N)(=O)=O)c3)ncc2F)cn1 | 32

Tested on: NCI-H82
Assay: Antiproliferative activity against human NCI-H82 cells assessed as inhibition of cell growth incubated for 72 hrs by MTT assay
Type: functional
Conditions: not given

SMILES | GI50 [nM]
Cn1cc(-c2nc(Nc3cccc(S(N)(=O)=O)c3)ncc2F)cn1 | 119

Tested on: KM12
Assay: Antiproliferative activity against human KM12 cells assessed as inhibition of cell growth incubated for 72 hrs by MTT assay
Type: functional
Conditions: not given

SMILES | GI50 [nM]
Cn1cc(-c2nc(Nc3cccc(S(N)(=O)=O)c3)ncc2F)cn1 | 90

Tested on: U-251
Assay: Antiproliferative activity against human U-251 cells assessed as inhibition of cell growth incubated for 72 hrs by MTT assay
Type: functional
Conditions: not given

SMILES | GI50 [nM]
Cn1cc(-c2nc(Nc3cccc(S(N)(=O)=O)c3)ncc2F)cn1 | 154

Target: Cyclin-dependent kinase 2/cyclin E (Homo sapiens, UniProt P24941)
Assay: Inhibition of CDK2/cyclin E (unknown origin) assessed as inhibition constant incubated for 30 to 60 mins presence of dithiothreitol by Cheng-Prusoff equation analysis
Type: protein-complex assay
Conditions: not given

SMILES | Ki [nM]
Cn1cc(-c2nc(Nc3cccc(S(N)(=O)=O)c3)ncc2F)cn1 | 23
Cn1cc(-c2nc(Nc3cccc(S(N)(=O)=O)c3)ncc2Cl)cn1 | 176
Cn1cc(-c2nc(NC3CCN(S(C)(=O)=O)CC3)ncc2F)cn1 | 18
Cn1cc(-c2nc(Nc3ccc(S(N)(=O)=O)cc3)ncc2F)cn1 | 21

Target: Cyclin-dependent kinase 5/CDK5 activator 1 (Homo sapiens, UniProt Q00535)
Sequence (Q00535 whole entry): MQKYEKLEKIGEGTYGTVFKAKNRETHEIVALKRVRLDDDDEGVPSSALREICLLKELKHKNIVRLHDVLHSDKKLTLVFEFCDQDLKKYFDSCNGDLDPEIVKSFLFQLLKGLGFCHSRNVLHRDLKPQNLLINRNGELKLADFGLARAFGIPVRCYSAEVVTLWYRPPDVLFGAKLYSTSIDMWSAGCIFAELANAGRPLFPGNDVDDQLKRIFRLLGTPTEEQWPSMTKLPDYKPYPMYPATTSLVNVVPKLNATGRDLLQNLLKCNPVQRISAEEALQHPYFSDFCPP
Sequence (Q15078 whole entry, further chain): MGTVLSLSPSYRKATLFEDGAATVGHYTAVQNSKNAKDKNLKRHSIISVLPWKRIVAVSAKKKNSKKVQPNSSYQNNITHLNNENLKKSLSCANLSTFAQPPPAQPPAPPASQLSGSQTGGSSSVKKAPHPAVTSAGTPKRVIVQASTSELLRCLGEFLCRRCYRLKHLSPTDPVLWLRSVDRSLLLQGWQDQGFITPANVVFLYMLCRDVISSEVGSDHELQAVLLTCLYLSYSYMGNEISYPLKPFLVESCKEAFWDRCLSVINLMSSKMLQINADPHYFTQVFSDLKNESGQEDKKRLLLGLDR
Assay: Inhibition of CDK5/p25 (unknown origin) assessed as inhibition constant incubated for 30 to 60 mins presence of dithiothreitol by Cheng-Prusoff equation analysis
Type: protein-complex assay
Conditions: not given

SMILES | Ki [nM]
Cn1cc(-c2nc(Nc3ccc(S(C)(=O)=O)cc3)ncc2F)cn1 | 42
Cn1cc(-c2nc(Nc3cccc(S(N)(=O)=O)c3)ncc2F)cn1 | 77
Cn1cc(-c2nc(Nc3cccc(S(N)(=O)=O)c3)ncc2Cl)cn1 | 92
Cn1cc(-c2nc(NC3CCN(S(C)(=O)=O)CC3)ncc2F)cn1 | 36
Cn1cc(-c2nc(Nc3ccc(S(N)(=O)=O)cc3)ncc2F)cn1 | 19
